In patent publication US20070082880A1 (priority 2005, published 2007):

target: T1, human PKCθ full length enzyme (Homo sapiens, UniProt Q04759); assay: PKCθ IMAP Assay; assay type: biochemical; conditions: average value when one or more samples were tested; ATP 6 uM, PKCθ 1 nM
T1 construct: human PKCθ full length enzyme (Panvera Catalog No. P2996); purchased Panvera P2996
Procedure: The materials used include the following: human PKCθ full length enzyme (Panvera Catalog No. P2996); substrate peptide: 5FAM-[…]-OH (Molecular Devices, RP7032); ATP (Sigma Cat # A2383); DTT (Pierce, 20291); 5× kinase reaction buffer (Molecular Devices, R7209); 5× binding buffer A (Molecular Devices, R7282), 5× binding buffer B (Molecular Devices, R7209); IMAP Beads (Molecular Devices, R7284); and 384-well plates (Corning Costar, 3710).
The reaction buffer was prepared by diluting the 5× stock reaction buffer and adding DTT to obtain a concentration of 3.0 mM. The binding buffer was prepared by diluting the 5× binding buffer A. A master mix solution was prepared using a 90% dilution of the reaction buffer containing 2×ATP (12 uM) and 2× peptide ([…]). […] The final concentration of compound was 2× and 10% DMSO. DMSO was added to the rest of the master mix to increase the concentration to 10%. 10 ul of the master mix containing 10% DMSO was added to the rest of the wells on the plate except the 2nd column. 20 ul was transferred from the first column to the 2nd column. The compounds were serially diluted in 2:1 ratio starting from the 2nd column. A 2× (2 nM) PKCθ solution was made in the reaction buffer. 10 ul of the PKCθ solution was added to every well to achieve these final concentrations: PKCθ—1 nM; ATP—6 uM; peptide—100 nM; DMSO—5%. Samples were incubated for 25 minutes at room temperature. The binding reagent was prepared by diluting the beads in 1× binding buffer to 800:1. 50 ul of the binding reagent was added to every well and incubated for 20 minutes. FP was measured using Envision2100 (PerkinElmer Life Sciences). Wells with no ATPs and wells with no enzymes were used as controls.

T1 sequence (Q04759 whole entry): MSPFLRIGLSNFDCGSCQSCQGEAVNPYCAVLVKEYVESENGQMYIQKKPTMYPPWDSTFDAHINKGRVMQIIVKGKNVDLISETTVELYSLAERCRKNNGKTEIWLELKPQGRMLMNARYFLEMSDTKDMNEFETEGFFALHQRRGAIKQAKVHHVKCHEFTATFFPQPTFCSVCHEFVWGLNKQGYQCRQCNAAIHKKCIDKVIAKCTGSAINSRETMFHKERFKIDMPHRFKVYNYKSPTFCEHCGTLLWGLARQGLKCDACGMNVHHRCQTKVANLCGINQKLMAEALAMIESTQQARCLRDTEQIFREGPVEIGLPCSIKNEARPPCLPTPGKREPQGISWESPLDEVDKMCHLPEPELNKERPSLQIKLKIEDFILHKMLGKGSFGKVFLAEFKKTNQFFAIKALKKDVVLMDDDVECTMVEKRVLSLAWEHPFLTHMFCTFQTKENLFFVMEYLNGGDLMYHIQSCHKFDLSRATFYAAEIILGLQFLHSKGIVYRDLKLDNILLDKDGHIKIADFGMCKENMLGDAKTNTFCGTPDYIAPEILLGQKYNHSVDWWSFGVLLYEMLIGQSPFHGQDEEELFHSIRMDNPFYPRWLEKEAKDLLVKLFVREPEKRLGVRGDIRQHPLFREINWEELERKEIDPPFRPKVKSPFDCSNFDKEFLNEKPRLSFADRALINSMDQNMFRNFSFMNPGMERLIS

Point of comparison: `CCN(CC)Cc1cccc(-c2cc3c(Nc4ccc5[nH]ccc5c4)c(C#N)cnc3s2)c1` [Compound 161, 2-{3-[(diethylamino)methyl]phenyl}-4-(1H-indol-5-ylamino)thieno[2,3-b]pyridine-5-carbonitrile], IC50 350 nM. Against it:
- N#Cc1cnc2sc(-c3cccc(CN4CCCCC4)c3)cc2c1Nc1ccc2[nH]ccc2c1 [Compound 160, 4-(1H-indol-5-ylamino)-2-[3-(piperidin-1-ylmethyl)phenyl]thieno[2,3-b]pyridine-5-carbonitrile] — within 1.5-fold, 360 nM
- COCCN(C)Cc1cccc(-c2cc3c(Nc4ccc5[nH]ccc5c4)c(C#N)cnc3s2)c1 [Compound 162, 4-(1H-indol-5-ylamino)-2-(3-{[(2-methoxyethyl)(methyl)amino]methyl}phenyl)thieno[2,3-b]pyridine-5-carbonitrile] — within 1.5-fold, 270 nM
- CN(C)CCN1CCN(Cc2cccc(-c3cc4c(Nc5ccc6[nH]ccc6c5)c(C#N)cnc4s3)c2)CC1 [Compound 163, 2-[3-({4-[2-(dimethylamino)ethyl]piperazin-1-yl}methyl)phenyl]-4-(1H-indol-5-ylamino)thieno[2,3-b]pyridine-5-carbonitrile] — 2.7-fold lower, 130 nM
- CN(CCO)Cc1cccc(-c2cc3c(Nc4ccc5[nH]ccc5c4)c(C#N)cnc3s2)c1 [Compound 164, 2-(3-{[(2-hydroxyethyl)(methyl)amino]methyl}phenyl)-4-(1H-indol-5-ylamino)thieno[2,3-b]pyridine-5-carbonitrile] — 4-fold lower, 88 nM
- COCCNCc1cccc(-c2cc3c(Nc4ccc5[nH]ccc5c4)c(C#N)cnc3s2)c1 [Compound 165, 4-(1H-indol-5-ylamino)-2-(3-{[(2-methoxyethyl)amino]methyl}phenyl)thieno[2,3-b]pyridine-5-carbonitrile] — 3.2-fold lower, 110 nM
- CN(C)CCNCc1cccc(-c2cc3c(Nc4ccc5[nH]ccc5c4)c(C#N)cnc3s2)c1 [Compound 166, 2-[3-({[2-(dimethylamino)ethyl]amino}methyl)phenyl]-4-(1H-indol-5-ylamino)thieno[2,3-b]pyridine-5-carbonitrile] — 2.2-fold lower, 160 nM
- N#Cc1cnc2sc(-c3cccc(CNCCCO)c3)cc2c1Nc1ccc2[nH]ccc2c1 [Compound 167, 2-(3-{[(3-hydroxypropyl)amino]methyl}phenyl)-4-(1H-indol-5-ylamino)thieno[2,3-b]pyridine-5-carbonitrile] — 3.2-fold lower, 110 nM
- N#Cc1cnc2sc(-c3cccc(CN4CCN(CC(=O)N5CCCC5)CC4)c3)cc2c1Nc1ccc2[nH]ccc2c1 [Compound 168, 4-(1H-indol-5-ylamino)-2-(3-{[4-(2-oxo-2-pyrrolidin-1-ylethyl)piperazin-1-yl]methyl}phenyl)thieno[2,3-b]pyridine-5-carbonitrile] — within 1.5-fold, 520 nM
- N#Cc1cnc2sc(-c3cccc(CN4CCN(Cc5ccncc5)CC4)c3)cc2c1Nc1ccc2[nH]ccc2c1 [Compound 169, 4-(1H-indol-5-ylamino)-2-(3-{[4-(pyridin-4-ylmethyl)piperazin-1-yl]methyl}phenyl)thieno[2,3-b]pyridine-5-carbonitrile] — 2.4-fold higher, 840 nM
- N#Cc1cnc2sc(-c3cccc(CNCCN4CCOCC4)c3)cc2c1Nc1ccc2[nH]ccc2c1 [Compound 170, 4-(1H-indol-5-ylamino)-2-(3-{[(2-morpholin-4-ylethyl)amino]methyl}phenyl)thieno[2,3-b]pyridine-5-carbonitrile] — within 1.5-fold, 430 nM
- N#Cc1cnc2sc(-c3cccc(CN4CC[C@H](O)C4)c3)cc2c1Nc1ccc2[nH]ccc2c1 [Compound 171, 2-(3-{[(3S)-3-hydroxypyrrolidin-1-yl]methyl}phenyl)-4-(1H-indol-5-ylamino)thieno[2,3-b]pyridine-5-carbonitrile] — 3.2-fold lower, 110 nM
- N#Cc1cnc2sc(-c3cccc(CN4CC[C@@H](O)C4)c3)cc2c1Nc1ccc2[nH]ccc2c1 [Compound 172, 2-(3-{[(3R)-3-hydroxypyrrolidin-1-yl]methyl}phenyl)-4-(1H-indol-5-ylamino)thieno[2,3-b]pyridine-5-carbonitrile] — 5.1-fold lower, 69 nM
- N#Cc1cnc2sc(-c3cccc(CN4CCCC(CO)C4)c3)cc2c1Nc1ccc2[nH]ccc2c1 (stereo not drawn) [Compound 173, 2-(3-{[3-(hydroxymethyl)piperidin-1-yl]methyl}phenyl)-4-(1H-indol-5-ylamino)thieno[2,3-b]pyridine-5-carbonitrile] — 2.7-fold lower, 130 nM
- N#Cc1cnc2sc(-c3cccc(CN4CCC(CO)CC4)c3)cc2c1Nc1ccc2[nH]ccc2c1 [Compound 174, 2-(3-{[4-(hydroxymethyl)piperidin-1-yl]methyl}phenyl)-4-(1H-indol-5-ylamino)thieno[2,3-b]pyridine-5-carbonitrile] — within 1.5-fold, 240 nM
- N#Cc1cnc2sc(-c3cccc(CN4CCN(CCn5ccnc5)CC4)c3)cc2c1Nc1ccc2[nH]ccc2c1 [Compound 175, 2-[3-({4-[2-(1H-imidazol-1-yl)ethyl]piperazin-1-yl}methyl)phenyl]-4-(1H-indol-5-ylamino)thieno[2,3-b]pyridine-5-carbonitrile] — within 1.5-fold, 280 nM
- N#Cc1cnc2sc(-c3cccc(CN4CCC(O)CC4)c3)cc2c1Nc1ccc2[nH]ccc2c1 [Compound 176, 2-{3-[(4-hydroxypiperidin-1-yl)methyl]phenyl}-4-(1H-indol-5-ylamino) thieno[2,3-b]pyridine-5-carbonitrile] — 2.1-fold lower, 170 nM
- N#Cc1cnc2sc(-c3cccc(CN4CCC(CCO)CC4)c3)cc2c1Nc1ccc2[nH]ccc2c1 [Compound 177, 2-(3-{[4-(2-hydroxyethyl)piperidin-1-yl]methyl}phenyl)-4-(1H-indol-5-ylamino)thieno[2,3-b]pyridine-5-carbonitrile] — 2.1-fold lower, 170 nM
- COCCN1CCN(Cc2cccc(-c3cc4c(Nc5ccc6[nH]ccc6c5)c(C#N)cnc4s3)c2)CC1 [Compound 178, 4-(1H-indol-5-ylamino)-2-(3-{[4-(2-methoxyethyl)piperazin-1-yl]methyl}phenyl)thieno[2,3-b]pyridine-5-carbonitrile] — within 1.5-fold, 300 nM
- N#Cc1cnc2sc(-c3cccc(CNCC4CCCO4)c3)cc2c1Nc1ccc2[nH]ccc2c1 (stereo not drawn) [Compound 179, 4-(1H-indol-5-ylamino)-2-(3-{[(tetrahydrofuran-2-ylmethyl)amino]methyl}phenyl) thieno[2,3-b] pyridine-5-carbonitrile] — 2.3-fold lower, 150 nM
- N#Cc1cnc2sc(-c3cccc(CNCCCN4CCOCC4)c3)cc2c1Nc1ccc2[nH]ccc2c1 [Compound 180, 4-(1H-indol-5-ylamino)-2-(3-{[(3-morpholin-4-ylpropyl)amino]methyl}phenyl)thieno[2,3-b]pyridine-5-carbonitrile] — 3.2-fold lower, 110 nM
- N#Cc1cnc2sc(-c3cccc(CN4CCN(CCOCCO)CC4)c3)cc2c1Nc1ccc2[nH]ccc2c1 [Compound 181, 2-[3-({4-[2-(2-hydroxyethoxy)ethyl]piperazin-1-yl}methyl)phenyl]-4-(1H-indol-5-ylamino)thieno[2,3-b]pyridine-5-carbonitrile] — 1.9-fold lower, 180 nM
- N#Cc1cnc2sc(-c3cccc(CN4CCCCC4CO)c3)cc2c1Nc1ccc2[nH]ccc2c1 (stereo not drawn) [Compound 182] — 2.7-fold lower, 130 nM
- N#Cc1cnc2sc(-c3cccc(CNCCOCCO)c3)cc2c1Nc1ccc2[nH]ccc2c1 [Compound 183, 2-[3-({[2-(2-hydroxyethoxy)ethyl]amino}methyl)phenyl]-4-(1H-indol-5-ylamino)thieno[2,3-b]pyridine-5-carbonitrile] — 4.4-fold lower, 79 nM
- N#Cc1cnc2sc(-c3cccc(CO)c3)cc2c1Nc1cccc2[nH]ccc12 [Compound 193, 2-[3-(hydroxymethyl)phenyl]-4-(1H-indol-4-ylamino)thieno[2,3-b]pyridine-5-carbonitrile] — 6.6-fold lower, 53 nM
- CN(C)C(=O)c1cccc(-c2cc3c(Nc4cccc5[nH]ccc45)c(C#N)cnc3s2)c1 [Compound 194, 3-[5-cyano-4-(1H-indol-4-ylamino)thieno[2,3-b]pyridine-2-yl]-N,N-dimethylbenzamide] — 2.9-fold lower, 120 nM
- CN(C)C(=O)c1cccc(-c2cc3c(Nc4ccc5[nH]ccc5c4)c(C#N)cnc3s2)c1 [Compound 195, 3-[5-cyano-4-(1H-indol-5-ylamino)thieno[2,3-b]pyridine-2-yl]-N,N-dimethylbenzamide] — within 1.5-fold, 420 nM
- N#Cc1cnc2sc(-c3cccc(CN)c3)cc2c1Nc1ccc2[nH]ccc2c1 [Compound 196, 2-[3-(aminomethyl)phenyl]-4-(1H-indol-5-ylamino)thieno[2,3-b]pyridine-5-carbonitrile] — 9.2-fold lower, 38 nM
- CN(C)c1cccc(-c2cc3c(Nc4ccc5[nH]ccc5c4)c(C#N)cnc3s2)c1 [Compound 197, 2-[3-(dimethylamino)phenyl]-4-(1H-indol-5-ylamino)thieno[2,3-b]pyridine-5-carbonitrile] — within 1.5-fold, 480 nM
- CNS(=O)(=O)c1ccc(-c2cc3c(Nc4ccc5[nH]ccc5c4)c(C#N)cnc3s2)cc1 [Compound 198, 4-[5-cyano-4-(1H-indol-5-ylamino)thieno[2,3-b]pyridin-2-yl]-N-methylbenzenesulfonamide] — 5.9-fold lower, 59 nM
